Experimental data as given in patent publication US5236904A, “Erection-inducing methods and compositions” (Senetek, plc, priority 1989, dated 1993).
“Also recorded” adds a separate entry of the source.

How the values were obtained:
human males [1] = conditions: cited from earlier work; for priapism: treatment of impotence
[2] = tested on: males with psychogenic or neurogenic dysfunction, severe atherosclerosis not involved; conditions: cited from earlier work; for erection on intracavernosal injection: severe atherosclerosis not involved
[3] = tested on: males who are impotent due to severe atherosclerosis; conditions: cited from earlier work; for efficacy in impotence due to severe atherosclerosis: in vivo
human males [4] = conditions: in vivo
Description: Priapism is a serious, deleterious side effect of treatment of erectile insufficiency with these drugs. Beyond the embarrassment that may be caused for some men, priapism is usually painful, irreversibly damages erectile tissue, and, to be relieved, requires bleeding or pharmacological intervention (e.g., injection of a sympathomimetic drug such as adrenaline).
Preferably 1 ml of the preferred composition is administered as a bolus by injection into a corpus cavernosum while the penis is constricted at its base with a tourniquet. About 5-10 minutes after the injection, the tourniquet is released and, if not already started before the tourniquet is released, sexual stimulation is begun.

normal male = conditions: cited from earlier work
[5] = tested on: human suffering from impotence, of which severe atherosclerosis is a cause; assay: Intracavernosal injection coupled with sexual stimulation in males with impotence caused by severe atherosclerosis; format: in vivo
Description: Thus, between about 0.1 ml and about 5 ml, and preferably about 1 ml, of a physiologically acceptable composition comprising one of VIP or PHM or a mixture thereof and an alpha-adrenergic blocker is administered as a bolus by intracavernosal injection during, or prior to the initiation of, sexual stimulation and preferably with the penis constricted at its base for between about 1 minute and about 15 minutes (preferably about 5 minutes-about 10 minutes) after the injection.

[6] = aqueous composition; cited from earlier work

Molecule: COc1ccc(Cc2nccc3cc(OC)c(OC)cc23)cc1OC [papaverine]
- pain after injection (human males [1]; even if priapism does not occur): painful, burning sensation in the first two or so minutes after the injection
- fibrosis (human males [1]; repeated use): undesirable, extensive intracavernous fibrosis
- priapism (human males [1]): often results in priapism
- erection on intracavernosal injection [2]: cause an erection sufficient for vaginal penetration
- efficacy in impotence due to severe atherosclerosis [3]: ineffective; also recorded: not susceptible to treatment

Molecule: human vasoactive intestinal peptide [VIP]
- priapism or burning pain on induction of an erection (human males [4]): does not entail priapism or the burning pain
- erectile response with sexual stimulation (normal male; as little as 1 μg (at 1 μg/ml of diluent), visual and/or vibration stimulation): facilitates full erection
- erectile response without sexual stimulation (normal male; up to 20 μg (at 20 μg/ml of diluent), no sexual stimulation): only slight swelling (slight tumescence) of the penis but not an erection
- systemic side effects due to administration (human males [1]; background statement): flushing of the skin and hypotension
- induction of erections, VIP alone coupled with sexual stimulation ([3]; impotent due to severe atherosclerosis): does not induce erections
- erection sufficient for vaginal penetration ([5]; 30 μg neuropeptide together with alpha-adrenergic blocker, in most cases): sufficient to induce an erection sufficient for vaginal penetration
- treatment of impotence, neuropeptide in combination with an alpha-adrenergic blocker ([5]; intracavernosal injection with alpha-adrenergic blocker such as phentolamine or prazosin, coupled with sexual stimulation): treated effectively
- induction of erections, neuropeptide alone ([5]; without alpha-adrenergic blocker): not effective

Molecule: CC(COc1ccccc1)N(CCCl)Cc1ccccc1 (centres unmarked) [phenoxybenzamine]
- priapism (human males [1]): often results in priapism
- erection on intracavernosal injection [2]: cause an erection sufficient for vaginal penetration
- efficacy in impotence due to severe atherosclerosis [3]: not susceptible to treatment

Molecule: Cc1ccc(N(CC2=NCCN2)c2cccc(O)c2)cc1 [phentolamine]
- stability in solution [6]: lability
- duration of erection ([2]; compared with papaverine or phenoxybenzamine): significantly shorter duration
- erection on intracavernosal injection [2]: causes an erection sufficient for vaginal penetration
- efficacy in impotence due to severe atherosclerosis [3]: not susceptible to treatment
